Key:
Type in all cases: biochemical
JAK1 = JAK1 (Homo sapiens, UniProt P23458); test: JAK Kinase Assay (JAK1, Caliper EZ Reader, fluoresceinated peptide); conditions: ATP 76.5 μM; JAK1 10 nM; 120 minutes at room temperature; read-out: JAK1 inhibition
Protocol: JAK Kinase Assay 384-well plates in the left foot butoxy measured progress. The final assay volume was 25 μL, 250 nL 100× compounds, 10 μL enzyme mix and 15 μL substrate mix (fluoresceinated peptide and ATP) in assay buffer (20 mM HEPES (pH 7.5), 10 mM MgCl2, […], 0.5 mM EGTA and 2 mM DTT) prepared as test compound. By mixing the JAK1 with substrates and test compounds to start the reaction. There action mixture was incubated for 120 minutes at room temperature, then added 30 μL stop buffer for each sample to terminate the reaction with 50 mM EDTA. After termination of the kinase reaction, the proportion of phosphorylated product was determined as a fraction of total peptide substrate using Caliper EZ Reader II. Inhibition data were calculated by comparison with 100% of the reaction mixture without enzyme inhibition and vehicle-only reaction mixture billion % inhibition compared. The final concentration of reagents in the assays is: ATP, 76.5 μM; JAK1 fluorescent peptide (5-FAM-EEPLYWSFPAKKK-CONH2), 3 μM; JAK1, 10 nM, and DMSO, 1%. Dose response curve were generated to determine the concentration required for IC50 of JAK activity.

JAK2 = JAK2 (Homo sapiens, UniProt O60674); test: JAK2 Assay (Caliper EZ Reader, fluoresceinated peptide); conditions: ATP 11.4 μM; JAK2 0.25 nM; 15 minutes at room temperature; read-out: JAK2 inhibition
Chain of JAK2 (O60674 whole entry, species assumed): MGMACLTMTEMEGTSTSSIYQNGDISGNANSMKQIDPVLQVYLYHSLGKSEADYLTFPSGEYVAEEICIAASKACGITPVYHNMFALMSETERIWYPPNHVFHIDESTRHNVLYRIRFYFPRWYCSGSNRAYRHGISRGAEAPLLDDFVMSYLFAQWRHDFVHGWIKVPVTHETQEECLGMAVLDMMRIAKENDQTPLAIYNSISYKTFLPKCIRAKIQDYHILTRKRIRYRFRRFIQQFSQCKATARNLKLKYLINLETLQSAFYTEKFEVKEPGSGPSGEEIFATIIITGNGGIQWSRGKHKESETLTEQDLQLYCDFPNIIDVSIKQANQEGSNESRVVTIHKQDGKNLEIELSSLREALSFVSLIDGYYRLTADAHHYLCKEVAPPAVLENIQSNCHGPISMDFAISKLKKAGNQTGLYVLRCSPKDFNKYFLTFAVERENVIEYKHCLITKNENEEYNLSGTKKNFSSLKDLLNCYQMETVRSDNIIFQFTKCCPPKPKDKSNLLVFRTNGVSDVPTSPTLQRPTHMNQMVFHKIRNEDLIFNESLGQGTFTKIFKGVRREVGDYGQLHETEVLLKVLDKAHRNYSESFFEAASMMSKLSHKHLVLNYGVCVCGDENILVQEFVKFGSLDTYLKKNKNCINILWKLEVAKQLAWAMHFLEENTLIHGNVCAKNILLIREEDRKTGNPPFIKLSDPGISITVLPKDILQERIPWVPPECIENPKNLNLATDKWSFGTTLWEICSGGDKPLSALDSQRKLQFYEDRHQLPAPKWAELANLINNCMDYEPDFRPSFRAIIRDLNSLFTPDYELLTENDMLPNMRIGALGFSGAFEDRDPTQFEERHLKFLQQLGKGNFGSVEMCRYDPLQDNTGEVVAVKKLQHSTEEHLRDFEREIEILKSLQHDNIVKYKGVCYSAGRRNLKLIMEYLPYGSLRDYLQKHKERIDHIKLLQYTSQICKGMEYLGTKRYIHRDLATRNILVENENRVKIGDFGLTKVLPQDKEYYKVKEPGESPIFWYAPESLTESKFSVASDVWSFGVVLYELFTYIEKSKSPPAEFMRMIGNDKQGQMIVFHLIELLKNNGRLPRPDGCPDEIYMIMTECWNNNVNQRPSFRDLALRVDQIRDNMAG
Protocol: JAK2 Assay 384-well plates in the left foot butoxy measured progress. The final assay volume was 25 μL, 250 nL 100× compounds, 10 μL enzyme mix and 15 μL substrate mix (fluoresceinated peptide and ATP) in assay buffer (50 mM HEPES (pH 7.5), 10 mM MgCl2, 0.01% TritonX-100, 0.01% Brij35, 0.5 mM EGTA and 2 mM DTT) prepared as test compound By mixing the JAK2 with substrates and test compounds to start the reaction. The reaction mixture was incubated for 15 minutes at room temperature, then added 30 μL stop buffer for each sample to terminate the reaction with 50 mM EDTA. After termination of the kinase reaction, the proportion of phosphorylated product was determined as a fraction of total peptide substrate using Caliper EZ Reader 1 Inhibition data were calculated by comparison with 100% of the reaction mixture without enzyme inhibition and vehicle-only reaction mixture billion % inhibition compared. The final concentration of reagents in the assays is: ATP, 11.4 μM; JAK2 fluorescent peptide (5-FAM-EEPLYWSFPAKKK-CONH2), 3 μM; JAK2, 0.25 nM; and DMSO, 1%. Dose response curve were generated to determine the concentration required for IC50 of JAK2 activity.

JAK3 = biological target: T1, JAK3 (Homo sapiens, UniProt P52333); test: JAK3 Assay (Caliper EZ Reader, fluoresceinated peptide); conditions: ATP 3.5 μM; JAK3 0.5 nM; 30 minutes at room temperature; read-out: JAK3 inhibition
T1 sequence (P52333 1-1124): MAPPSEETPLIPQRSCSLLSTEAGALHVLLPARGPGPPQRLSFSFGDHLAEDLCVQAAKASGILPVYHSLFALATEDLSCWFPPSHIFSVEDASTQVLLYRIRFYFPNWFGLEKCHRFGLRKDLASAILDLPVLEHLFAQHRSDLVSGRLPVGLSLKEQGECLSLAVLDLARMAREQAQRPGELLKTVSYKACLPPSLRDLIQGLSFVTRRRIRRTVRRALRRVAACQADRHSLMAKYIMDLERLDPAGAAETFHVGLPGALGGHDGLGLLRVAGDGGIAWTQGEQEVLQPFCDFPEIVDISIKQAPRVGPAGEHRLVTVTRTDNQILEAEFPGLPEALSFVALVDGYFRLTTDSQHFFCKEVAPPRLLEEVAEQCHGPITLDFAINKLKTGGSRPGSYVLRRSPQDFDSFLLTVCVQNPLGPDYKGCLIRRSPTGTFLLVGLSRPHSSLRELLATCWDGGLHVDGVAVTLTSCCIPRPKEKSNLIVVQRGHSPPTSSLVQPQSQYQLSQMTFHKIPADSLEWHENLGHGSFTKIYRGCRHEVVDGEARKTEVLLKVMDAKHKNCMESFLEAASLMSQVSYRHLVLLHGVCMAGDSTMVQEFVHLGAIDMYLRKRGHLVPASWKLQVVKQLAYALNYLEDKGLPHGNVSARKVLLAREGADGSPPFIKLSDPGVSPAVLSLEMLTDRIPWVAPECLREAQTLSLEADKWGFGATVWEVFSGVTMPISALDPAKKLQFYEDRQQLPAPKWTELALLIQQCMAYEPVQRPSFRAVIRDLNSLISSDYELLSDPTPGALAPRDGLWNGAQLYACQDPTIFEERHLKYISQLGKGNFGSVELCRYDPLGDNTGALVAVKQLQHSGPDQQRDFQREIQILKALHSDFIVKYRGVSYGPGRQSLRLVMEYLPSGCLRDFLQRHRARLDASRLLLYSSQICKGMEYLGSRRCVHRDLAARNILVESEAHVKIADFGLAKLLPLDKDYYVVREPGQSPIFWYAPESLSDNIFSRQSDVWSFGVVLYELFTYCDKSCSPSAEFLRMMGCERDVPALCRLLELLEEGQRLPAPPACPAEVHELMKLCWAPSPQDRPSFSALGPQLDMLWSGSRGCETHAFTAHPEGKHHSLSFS
Protocol: JAK3 Assay 384-well plates in the left foot butoxy measured progress. The final assay volume was 25 μL, 250 nL 100× compounds, 10 μL enzyme mix and 15 μL substrate mix (fluoresceinated peptide and ATP) in assay buffer (50 mM HEPES (pH 7.5), 10 mM MgCl2, 0.01% TritonX-100, 0.01% Brij35, 0.5 mM EGTA and 2 mM DTT) prepared as test compound. By mixing the JAK3 with substrates and test compounds to start the reaction. The reaction mixture was incubated for 30 minutes at room temperature, then added 30 μL stop buffer for each sample to terminate the reaction with 50 mM EDTA. After termination of the kinase reaction, the proportion of phosphorylated product was determined as a fraction of total peptide substrate using Caliper EZ Reader II. Inhibition data were calculated by comparison with 100% of the reaction mixture without enzyme inhibition and vehicle-only reaction mixture billion % inhibition compared. The final concentration of reagents in the assays is: ATP, 3.5 μM; JAK3 fluorescent peptide (5-FAM-EEPLYWSFPAKKK-CONH2), 3 μM; JAK3, 0.5 nM; and DMSO, 1%. Dose response curve were generated to determine the concentration required for IC50 of JAK3 activity.

Chain of JAK1 (P23458 whole entry, species assumed): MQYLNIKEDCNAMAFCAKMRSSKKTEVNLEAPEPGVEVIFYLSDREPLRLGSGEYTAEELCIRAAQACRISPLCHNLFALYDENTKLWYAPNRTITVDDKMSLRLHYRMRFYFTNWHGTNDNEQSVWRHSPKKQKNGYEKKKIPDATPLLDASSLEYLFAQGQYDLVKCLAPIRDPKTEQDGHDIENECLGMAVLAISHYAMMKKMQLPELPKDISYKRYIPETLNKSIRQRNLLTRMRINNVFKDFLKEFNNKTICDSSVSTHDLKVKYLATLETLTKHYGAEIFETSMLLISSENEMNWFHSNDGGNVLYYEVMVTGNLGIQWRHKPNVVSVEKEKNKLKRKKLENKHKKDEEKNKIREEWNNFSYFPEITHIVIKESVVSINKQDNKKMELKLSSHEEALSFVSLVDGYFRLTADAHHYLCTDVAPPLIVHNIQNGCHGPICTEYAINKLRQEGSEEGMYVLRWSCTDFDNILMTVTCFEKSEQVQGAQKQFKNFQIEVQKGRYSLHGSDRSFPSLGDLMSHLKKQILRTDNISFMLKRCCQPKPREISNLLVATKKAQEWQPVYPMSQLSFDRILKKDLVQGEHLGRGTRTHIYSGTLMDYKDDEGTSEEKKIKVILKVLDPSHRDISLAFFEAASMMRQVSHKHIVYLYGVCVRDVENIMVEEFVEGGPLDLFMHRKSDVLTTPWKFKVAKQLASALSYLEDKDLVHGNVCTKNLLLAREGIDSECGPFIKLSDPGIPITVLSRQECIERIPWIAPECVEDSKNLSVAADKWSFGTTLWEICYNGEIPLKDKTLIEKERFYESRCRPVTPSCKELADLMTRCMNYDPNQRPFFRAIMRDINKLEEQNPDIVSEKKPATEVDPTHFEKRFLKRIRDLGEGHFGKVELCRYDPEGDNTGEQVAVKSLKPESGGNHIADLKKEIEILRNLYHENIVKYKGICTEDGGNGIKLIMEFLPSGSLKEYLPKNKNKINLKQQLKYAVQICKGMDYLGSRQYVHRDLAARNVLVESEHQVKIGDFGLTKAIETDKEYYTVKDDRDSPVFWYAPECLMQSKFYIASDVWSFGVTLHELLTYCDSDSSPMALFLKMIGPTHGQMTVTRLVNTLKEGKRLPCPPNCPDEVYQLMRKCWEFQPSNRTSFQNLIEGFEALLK

Row | SMILES | IC50 (JAK1) | IC50 (JAK2) | IC50 (JAK3)
1 | COc1ccc(NC(=O)N2CCC3(CCC(N(C)c4ncnc5[nH]ccc45)CC3)CC2)nc1 [Compound 130, N-(5-methoxypyridin-2-yl)-9-(methyl(7H-pyrrolo[2,3-d]pyrimidin-4-yl)amino)-3-azaspiro[5.5]undecane-3-carboxamide] | 10 to 100 nM | – | –
2 | Cc1cnc(NC(=O)N2CCC3(CCC(N(C)c4ncnc5[nH]ccc45)CC3)CC2)cn1 [Compound 128, 9-(methyl(7H-pyrrolo[2,3-d]pyrimidin-4-yl)amino)-N-(5-methylpyrazin-2-yl)-3-azaspiro[5.5]undecane-3-carboxamide] | 1000 to 10000 nM | – | –
3 | COc1nsc(NC(=O)N2CCC3(CCC(N(C)c4ncnc5[nH]ccc45)CC3)CC2)n1 [Compound 74, N-(3-methoxy-1,2,4-thiadiazol-5-yl)-9-(methyl(7H-pyrrolo[2,3-d]pyrimidin-4-yl)amino)-3-azaspiro[5.5]undecane-3-carboxamide] | ≤ 10 nM | – | –
4 | COc1cccc(NC(=O)N2CCC3(CCC(N(C)c4ncnc5[nH]ccc45)CC3)CC2)n1 [Compound 124, N-(6-methoxpyridin-2-yl)-9-(methyl(7H-pyrrolo[2,3-d]pyrimidin-4-yl)amino)-3-azaspiro[5.5]undecane-3-carboxamide] | 10 to 100 nM | – | –
5 | CN(c1ncnc2[nH]ccc12)C1CCC2(CC1)CCN(C(=O)OCC(F)(F)F)CC2 [Compound 108, 2,2,2-trifluoroethyl 9-(methyl(7H-pyrrolo[2,3-d]pyrimidin-4-yl)amino)-3-azaspiro[5.5]undecane-3-carboxylate] | 100 to 1000 nM | – | –
6 | CN(c1ncnc2[nH]ccc12)C1CCC2(CC1)CCN(C(=O)COc1ccccc1)CC2 [Compound 107, 1-(9-(methyl(7H-pyrrolo[2,3-d]pyrimidin-4-yl)amino)-3-azaspiro[5.5]undecan-3-yl)-2-phenoxyethan-1-one] | ≤ 10 nM | – | –
7 | CN(c1ncnc2[nH]ccc12)C1CCC2(CC1)CCN(C(=O)OC(C)(C)C)CC2 [Compound 106, tert-butyl 9-(methyl(7H-pyrrolo[2,3-d]pyrimidin-4-yl)amino)-3-azaspiro[5.5]undecane-3-carboxylate] | 1000 to 10000 nM | – | –
8 | COc1cnc(NC(=O)N2CCC3(CCC(N(C)c4ncnc5[nH]ccc45)CC3)CC2)cn1 [Compound 129, N-(5-methoxypyrazin-2-yl)-9-(methyl(7H-pyrrolo[2,3-d]pyrimidin-4-yl)amino)-3-azaspiro[5.5]undecane-3-carboxamide] | 10 to 100 nM | – | –

More lines, now with the values ahead:

Row | IC50 (JAK1) | IC50 (JAK2) | IC50 (JAK3) | SMILES
9 | 10 to 100 nM | 100 to 1000 nM | 1000 to 10000 nM | CN(c1ncnc2[nH]ccc12)C1CC2(C1)CN(C(=O)c1ccc(I)cc1)C2 [Compound 38, (4-iodophenyl)(6-(methyl(7H-pyrrolo[2,3-d]pyrimidin-4-yl)amino)-2-azaspiro[3.3]heptan-2-yl)methanone]
10 | 100 to 1000 nM | 100 to 1000 nM | 1000 to 10000 nM | CN(c1ncnc2[nH]ccc12)C1CCC2(CC1)CCN(C(=O)c1cc3ccccc3s1)CC2 [Compound 105, Benzo[b]thiophen-2-yl-{9-[methyl-(7H-pyrrolo[2,3-d]pyrimidin-4-yl)-amino]-3-aza-spiro[5.5]undec-3-yl}-methanone]
11 | ≤ 10 nM | – | – | [2H]C([2H])([2H])N(c1ncnc2[nH]ccc12)C1CC2(C1)CN(C(=O)c1ccc(C#N)c(F)c1F)C2 [Compound 67, 2,3-Difluoro-4-{6-[(methyl-d3)-(7H-pyrrolo[2,3-d]pyrimidin-4-yl)-amino]-2-aza-spiro[3.3]heptane-2-carbonyl}-benzonitrile]
12 | 1000 to 10000 nM | – | – | CN(c1ncnc2[nH]ccc12)C1CCC2(CC1)CCN(C(=O)Nc1ccc(C#N)cn1)CC2 [Compound 125, N-(5-cyanopyridin-2-yl)-9-(methyl(7H-pyrrolo[2,3-d]pyrimidin-4-yl)amino)-3-azaspiro[5.5]undecane-3-carboxamide]
13 | 10 to 100 nM | – | – | CN(c1ncnc2[nH]ccc12)C1CCC2(CC1)CCN(C(=O)Nc1ccc(C#N)cc1)CC2 [Compound 121, N-(4-cyanophenyl)-9-(methyl(7H-pyrrolo[2,3-d]pyrimidin-4-yl)amino)-3-azaspiro[5.5]undecane-3-carboxamide]
14 | 10 to 100 nM | – | – | CN(c1ncnc2[nH]ccc12)C1CCC2(CC1)CCN(C(=O)NCC(F)(F)F)CC2 [Compound 109, 9-(methyl(7H-pyrrolo[2,3-d]pyrimidin-4-yl)amino)-N-(2,2,2-trifluoroethyl)-3-azaspiro[5.5]undecane-3-carboxamide]
15 | 10 to 100 nM | – | – | CN(c1ncnc2[nH]ccc12)C1CC2(C1)CN(C(=O)c1cc(F)c(C#N)c(F)c1)C2 [Compound 52, 2,6-difluoro-4-(6-(methyl(7H-pyrrolo[2,3-d]pyrimidin-4-yl)amino)-2-azaspiro[3.3]heptane-2-carbonyl)benzonitrile]
16 | 10 to 100 nM | – | – | CN(c1ncnc2[nH]ccc12)C1CCC2(CC1)CCN(C(=O)COc1ccc(C#N)c(F)c1F)CC2 [Compound 118, 2,3-difluoro-4-(2-(9-(methyl(7H-pyrrolo[2,3-d]pyrimidin-4-yl)amino)-3-azaspiro[5.5]undecan-3-yl)-2-oxoethoxy)benzonitrile]
17 | ≤ 10 nM | – | – | CN(c1ncnc2[nH]ccc12)C1CCC2(CC1)CCN(C(=O)COc1ccc(C#N)cc1)CC2 [Compound 115, 4-(2-(9-(methyl(7H-pyrrolo[2,3-d]pyrimidin-4-yl)amino)-3-azaspiro[5.5]undecan-3-yl)-2-oxoethoxy)benzonitrile]
18 | 10 to 100 nM | – | – | CN(c1ncnc2[nH]ccc12)C1CC2(C1)CN(C(=O)c1cc(F)c(F)c(C#N)c1)C2 [Compound 62, 2,3-Difluoro-5-{6-[methyl-(7H-pyrrolo[2,3-d]pyrimidin-4-yl)-amino]-2-aza-spiro[3.3]heptane-2-carbonyl}-benzonitrile]
